Values quoted from earlier work in publication PMC10323144, “Garbage in, garbage out: how reliable training data improved a virtual screening approach against SARS-CoV-2 MPro” (Frontiers in Pharmacology, 2023).
Numbered stars: 1 amine (or outer) side, 2 acyl side, 3 side chain; on linkers, the order of the positions; unused ones are H or OH. Bridge positions count the residues as written; N and C are the ends. Square brackets hold non-standard residues; d marks the D form. Peptide text beside a SMILES is read from it. * marks the point of attachment. hTyr(3S-OH,4S-OH,3'-OSO3H) = N[C@H](C(=O)O)[C@H](O)[C@@H](O)c1ccc(O)c(OS(=O)(=O)O)c1; Orn(4R-OH,5R-OH) = O=C([C@H](C[C@@H](O)[C@@H](O)N[*:3])N[*:1])[*:2]; Pro(3S-OH,4S-Me) = C[C@H]1CN[C@H](C(=O)O)[C@H]1O; X1 = CCCCCOc1ccc(-c2cc(-c3ccc(C(=O)*)cc3)no2)cc1; Gln(3R-OH) = NC(=O)C[C@@H](O)[C@H](N)C(=O)O; Hyp = O=C(O)[C@@H]1C[C@@H](O)CN1; Cbz = O=C(OCc1ccccc1)*; Nva = CCC[CH](N)C(=O)O

Test system: MPro
Settings: compiled from peer-reviewed sources (287 compounds) ref the 18 original articles; cited from earlier work

Compound	Class (MPro activity class)
COC(=O)C1=CO[C@@H](O[C@@H]2O[C@H](CO)[C@@H](O)[C@H](O)[C@H]2O)[C@@H]2[C@@H](C)[C@@H](O)C[C@H]12 [Loganin]	0 (compounds with IC50 > 20 μM, percentage inhibition <80% at 20 µM or 50 μM, or percentage enzyme inhibition <50% at 10 µM were labelled as INACTIVE)
CC(C)(C)C#Cc1cc(N(C(=O)[C@H]2CC[C@H](C)CC2)[C@H]2CC[C@H](O)CC2)c(C(=O)O)s1 [Lomibuvir]	0 (compounds with IC50 > 20 μM, percentage inhibition <80% at 20 µM or 50 μM, or percentage enzyme inhibition <50% at 10 µM were labelled as INACTIVE)
CC(C)CCNC(=O)C(CC(C)C)NC(=O)C1OC1C(=O)O (stereo not drawn) [Loxistatin Acid]	0 (compounds with IC50 > 20 μM, percentage inhibition <80% at 20 µM or 50 μM, or percentage enzyme inhibition <50% at 10 µM were labelled as INACTIVE)
O=c1cc(-c2ccc(O)c(O)c2)oc2cc(O[C@@H]3O[C@H](CO)[C@@H](O)[C@H](O)[C@H]3O)cc(O)c12 [Luteoloside]	0 (compounds with IC50 > 20 μM, percentage inhibition <80% at 20 µM or 50 μM, or percentage enzyme inhibition <50% at 10 µM were labelled as INACTIVE)
O=C(CCl)N1CCN(S(=O)(=O)C2=CC[SH]=C2)CC1 [MAK-UNK-d4768348-1]	1 (Compounds with IC50 < 10 µM or with a percentage of enzyme inhibition >50% at 10 µM were labelled as ACTIVE)
COc1ccc(C2CC(c3cccs3)=NN2C(=O)CCl)cc1OC (stereo not drawn) [MAT-POS-916a2c5a-1]	1 (Compounds with IC50 < 10 µM or with a percentage of enzyme inhibition >50% at 10 µM were labelled as ACTIVE)
COc1ccccc1OCCNC(=O)c1cc(=O)[nH]c2ccccc12 [MAT-POS-916a2c5a-2]	1 (Compounds with IC50 < 10 µM or with a percentage of enzyme inhibition >50% at 10 µM were labelled as ACTIVE)
Cc1cc(C)c(C)c(S(=O)(=O)N2CCN(C(=O)c3cc(=O)[nH]c4ccccc34)CC2)c1C [MAT-POS-916a2c5a-3]	1 (Compounds with IC50 < 10 µM or with a percentage of enzyme inhibition >50% at 10 µM were labelled as ACTIVE)
O=C(CCl)N1CCN(S(=O)(=O)c2ccsc2)CC1 [MAT-POS-ee51dedd-2]	1 (Compounds with IC50 < 10 µM or with a percentage of enzyme inhibition >50% at 10 µM were labelled as ACTIVE)
CC1CN(Cc2cccc(Cl)c2)CCN1C(=O)CCl (stereo not drawn) [MED-COV-4280ac29-13]	1 (Compounds with IC50 < 10 µM or with a percentage of enzyme inhibition >50% at 10 µM were labelled as ACTIVE)
O=C(CCl)N1CCN(Cc2cccc(Cl)c2)CC1 [MED-COV-4280ac29-15]	1 (Compounds with IC50 < 10 µM or with a percentage of enzyme inhibition >50% at 10 µM were labelled as ACTIVE)
COc1ccc(C2CC(c3ccccc3)=NN2C(=O)CCl)cc1OC (stereo not drawn) [MED-COV-4280ac29-30]	1 (Compounds with IC50 < 10 µM or with a percentage of enzyme inhibition >50% at 10 µM were labelled as ACTIVE)
O=C(CCl)N1CCN(Cc2cccc3ccccc23)CC1 [MED-COV-4280ac29-31]	1 (Compounds with IC50 < 10 µM or with a percentage of enzyme inhibition >50% at 10 µM were labelled as ACTIVE)
COCc1cc(Cl)cc(CN2CCN(C(=O)CCl)CC2)c1 [MED-COV-4280ac29-33]	1 (Compounds with IC50 < 10 µM or with a percentage of enzyme inhibition >50% at 10 µM were labelled as ACTIVE)
COCCc1ccc(Cl)cc1CN1CCN(C(=O)CCl)CC1 [MED-COV-4280ac29-37]	1 (Compounds with IC50 < 10 µM or with a percentage of enzyme inhibition >50% at 10 µM were labelled as ACTIVE)
CCCC(C=O)NC(=O)C(CC(C)C)NC(=O)C(CC(C)C)NC(=O)OCc1ccccc1 (stereo not drawn) [MG-115] (Cbz-Leu-Leu-[Nva]-aldehyde; configuration not given here)	1 (Compounds with IC50 < 10 µM or with a percentage of enzyme inhibition >50% at 10 µM were labelled as ACTIVE)
CC(C)C[C@@H](C=O)NC(=O)[C@H](CC(C)C)NC(=O)[C@H](CC(C)C)NC(=O)OCc1ccccc1 [MG-132] (Cbz-Leu-Leu-Leu-aldehyde)	1 (Compounds with IC50 < 10 µM or with a percentage of enzyme inhibition >50% at 10 µM were labelled as ACTIVE)
NS(=O)(=O)CCc1ccccc1CN1CCN(C(=O)CCl)CC1 [MIH-UNI-e573136b-5]	1 (Compounds with IC50 < 10 µM or with a percentage of enzyme inhibition >50% at 10 µM were labelled as ACTIVE)
O=C(O)CC[C@H]1CC[C@@](c2cc(F)ccc2F)(S(=O)(=O)c2ccc(Cl)cc2)CC1 [MK-0752]	0 (compounds with IC50 > 20 μM, percentage inhibition <80% at 20 µM or 50 μM, or percentage enzyme inhibition <50% at 10 µM were labelled as INACTIVE)
CC(C)C[C@H](NC(=O)CNC(=O)c1cc(Cl)ccc1Cl)B(O)O [MLN2238]	0 (compounds with IC50 > 20 μM, percentage inhibition <80% at 20 µM or 50 μM, or percentage enzyme inhibition <50% at 10 µM were labelled as INACTIVE)

Compound	Class (MPro activity class)
CCCCCOc1ccc(-c2cc(-c3ccc(C(=O)N[C@H]4C[C@@H](O)[C@@H](O)NC(=O)[C@@H]5[C@@H](O)[C@@H](C)CN5C(=O)[C@H]([C@H](O)CC(N)=O)NC(=O)[C@H]([C@H](O)[C@@H](O)c5ccc(O)c(OS(=O)(=O)O)c5)NC(=O)[C@@H]5C[C@@H](O)CN5C(=O)[C@H]([C@@H](C)O)NC4=O)cc3)no2)cc1 [Micafungin] (X1-[Orn(4R-OH,5R-OH)]T[Hyp][hTyr(3S-OH,4S-OH,3'-OSO3H)][Gln(3R-OH)][Pro(3S-OH,4S-Me)]; lactam 1-C)	0 (compounds with IC50 > 20 μM, percentage inhibition <80% at 20 µM or 50 μM, or percentage enzyme inhibition <50% at 10 µM were labelled as INACTIVE)
O=c1c(O)c(-c2cc(O)c(O)c(O)c2)oc2cc(O)cc(O)c12 [Myricetin]	1 (Compounds with IC50 < 10 µM or with a percentage of enzyme inhibition >50% at 10 µM were labelled as ACTIVE)
COc1ccc2c(c1)CN(C(=O)CCl)C(c1ccccc1)C2 (stereo not drawn) [NAU-LAT-64f4b287-4]	1 (Compounds with IC50 < 10 µM or with a percentage of enzyme inhibition >50% at 10 µM were labelled as ACTIVE)
Cc1cc(Cl)cc(CC2CCN(C(=O)CCl)CC2)c1 [NIR-THE-0d6461ce-8]	1 (Compounds with IC50 < 10 µM or with a percentage of enzyme inhibition >50% at 10 µM were labelled as ACTIVE)
Nc1cccc(C2CN(C(=O)CCl)Cc3ccccc32)c1 (stereo not drawn) [NIR-THE-c331be7a-1]	1 (Compounds with IC50 < 10 µM or with a percentage of enzyme inhibition >50% at 10 µM were labelled as ACTIVE)
N#Cc1cccc(C2CN(C(=O)CCl)Cc3ccccc32)c1 (stereo not drawn) [NIR-THE-c331be7a-2]	1 (Compounds with IC50 < 10 µM or with a percentage of enzyme inhibition >50% at 10 µM were labelled as ACTIVE)
Cc1cccc(C2CN(C(=O)CCl)Cc3ccccc32)c1 (stereo not drawn) [NIR-THE-c331be7a-6]	1 (Compounds with IC50 < 10 µM or with a percentage of enzyme inhibition >50% at 10 µM were labelled as ACTIVE)
N=C(N)c1ccc2cc(OC(=O)c3ccc(N=C(N)N)cc3)ccc2c1 [Nafamostat]	0 (compounds with IC50 > 20 μM, percentage inhibition <80% at 20 µM or 50 μM, or percentage enzyme inhibition <50% at 10 µM were labelled as INACTIVE)
CCCC[C@H](NC(=O)[C@@H]1[C@@H]2[C@H](CN1C(=O)[C@@H](NC(=O)NC1(CS(=O)(=O)C(C)(C)C)CCCCC1)C(C)(C)C)C2(C)C)C(=O)C(=O)NC1CC1 [Narlaprevir]	1 (Compounds with IC50 < 10 µM or with a percentage of enzyme inhibition >50% at 10 µM were labelled as ACTIVE)
Cc1c(O)cccc1C(=O)N[C@@H](CSc1ccccc1)[C@H](O)CN1C[C@H]2CCCC[C@H]2C[C@H]1C(=O)NC(C)(C)C [Nelfinavir]	0 (compounds with IC50 > 20 μM, percentage inhibition <80% at 20 µM or 50 μM, or percentage enzyme inhibition <50% at 10 µM were labelled as INACTIVE)
COc1ccc(CC(NC(=O)C(C)NC(=O)CN2CCOCC2)C(=O)NC(Cc2ccccc2)C(=O)C2(C)CO2)cc1 (stereo not drawn) [ONX-0914]	0 (compounds with IC50 > 20 μM, percentage inhibition <80% at 20 µM or 50 μM, or percentage enzyme inhibition <50% at 10 µM were labelled as INACTIVE)
CC(C)(F)C[C@H](N[C@@H](c1ccc(-c2ccc(S(C)(=O)=O)cc2)cc1)C(F)(F)F)C(=O)NC1(C#N)CC1 [Odanacatib]	0 (compounds with IC50 > 20 μM, percentage inhibition <80% at 20 µM or 50 μM, or percentage enzyme inhibition <50% at 10 µM were labelled as INACTIVE)
COC(=O)N[C@H](C(=O)N1CCC[C@H]1C(=O)Nc1ccc([C@@H]2CC[C@@H](c3ccc(NC(=O)[C@@H]4CCCN4C(=O)[C@@H](NC(=O)OC)C(C)C)cc3)N2c2ccc(C(C)(C)C)cc2)cc1)C(C)C [Ombitasvir]	0 (compounds with IC50 > 20 μM, percentage inhibition <80% at 20 µM or 50 μM, or percentage enzyme inhibition <50% at 10 µM were labelled as INACTIVE)
COC[C@H](NC(=O)c1cnc(C)s1)C(=O)N[C@@H](COC)C(=O)N[C@@H](Cc1ccccc1)C(=O)[C@@]1(C)CO1 [Oprozomib]	0 (compounds with IC50 > 20 μM, percentage inhibition <80% at 20 µM or 50 μM, or percentage enzyme inhibition <50% at 10 µM were labelled as INACTIVE)
COc1c(OC2OC(C(=O)O)C(O)C(O)C2O)cc2oc(-c3ccccc3)cc(=O)c2c1O [Oroxylin A-7-O-β-D-glucuronide]	0 (compounds with IC50 > 20 μM, percentage inhibition <80% at 20 µM or 50 μM, or percentage enzyme inhibition <50% at 10 µM were labelled as INACTIVE)
CCOC(=O)C1=C[C@@H](OC(CC)CC)[C@H](NC(C)=O)[C@@H](N)C1 [Oseltamivir]	0 (compounds with IC50 > 20 μM, percentage inhibition <80% at 20 µM or 50 μM, or percentage enzyme inhibition <50% at 10 µM were labelled as INACTIVE)
CC(=O)c1cc([N+](=O)[O-])c(Sc2cccc(Cl)c2Cl)s1 [P005091]	0 (compounds with IC50 > 20 μM, percentage inhibition <80% at 20 µM or 50 μM, or percentage enzyme inhibition <50% at 10 µM were labelled as INACTIVE)
CC(=O)c1cc([N+](=O)[O-])c(Sc2ccc(F)cc2F)s1 [P22077]	0 (compounds with IC50 > 20 μM, percentage inhibition <80% at 20 µM or 50 μM, or percentage enzyme inhibition <50% at 10 µM were labelled as INACTIVE)
CC(C)CCC(=O)CC1c2ccccc2C(=O)N1c1ccc2ccc(Cl)nc2n1 (stereo not drawn) [PAGOCLONE]	0 (compounds with IC50 > 20 μM, percentage inhibition <80% at 20 µM or 50 μM, or percentage enzyme inhibition <50% at 10 µM were labelled as INACTIVE)
